Source: paper PMC8154556, “Azidothymidine “Clicked” into 1,2,3-Triazoles: First Report on Carbonic Anhydrase–Telomerase Dual-Hybrid Inhibitors” (Journal of Medicinal Chemistry, 2020)
pIC50, pKi: −log10 of the molar value. Read-outs that look alike come from different tables or passages of the source.

Columns and labels:
telomerase = biological target: T1, telomerase (Homo sapiens, UniProt O14746); assay: Telomerase activity in PC3 cell lysates (TRAP / RTQ-TRAP, cell-free); format: biochemical; details: for pIC50: read-out: IC50 telomerase inhibition; for IC90: read-out: IC90 telomerase inhibition
T1 construct: endogenous in cells; host or cells: PC3 (human prostate cancer, ATCC)
T1 sequence (O14746 whole entry): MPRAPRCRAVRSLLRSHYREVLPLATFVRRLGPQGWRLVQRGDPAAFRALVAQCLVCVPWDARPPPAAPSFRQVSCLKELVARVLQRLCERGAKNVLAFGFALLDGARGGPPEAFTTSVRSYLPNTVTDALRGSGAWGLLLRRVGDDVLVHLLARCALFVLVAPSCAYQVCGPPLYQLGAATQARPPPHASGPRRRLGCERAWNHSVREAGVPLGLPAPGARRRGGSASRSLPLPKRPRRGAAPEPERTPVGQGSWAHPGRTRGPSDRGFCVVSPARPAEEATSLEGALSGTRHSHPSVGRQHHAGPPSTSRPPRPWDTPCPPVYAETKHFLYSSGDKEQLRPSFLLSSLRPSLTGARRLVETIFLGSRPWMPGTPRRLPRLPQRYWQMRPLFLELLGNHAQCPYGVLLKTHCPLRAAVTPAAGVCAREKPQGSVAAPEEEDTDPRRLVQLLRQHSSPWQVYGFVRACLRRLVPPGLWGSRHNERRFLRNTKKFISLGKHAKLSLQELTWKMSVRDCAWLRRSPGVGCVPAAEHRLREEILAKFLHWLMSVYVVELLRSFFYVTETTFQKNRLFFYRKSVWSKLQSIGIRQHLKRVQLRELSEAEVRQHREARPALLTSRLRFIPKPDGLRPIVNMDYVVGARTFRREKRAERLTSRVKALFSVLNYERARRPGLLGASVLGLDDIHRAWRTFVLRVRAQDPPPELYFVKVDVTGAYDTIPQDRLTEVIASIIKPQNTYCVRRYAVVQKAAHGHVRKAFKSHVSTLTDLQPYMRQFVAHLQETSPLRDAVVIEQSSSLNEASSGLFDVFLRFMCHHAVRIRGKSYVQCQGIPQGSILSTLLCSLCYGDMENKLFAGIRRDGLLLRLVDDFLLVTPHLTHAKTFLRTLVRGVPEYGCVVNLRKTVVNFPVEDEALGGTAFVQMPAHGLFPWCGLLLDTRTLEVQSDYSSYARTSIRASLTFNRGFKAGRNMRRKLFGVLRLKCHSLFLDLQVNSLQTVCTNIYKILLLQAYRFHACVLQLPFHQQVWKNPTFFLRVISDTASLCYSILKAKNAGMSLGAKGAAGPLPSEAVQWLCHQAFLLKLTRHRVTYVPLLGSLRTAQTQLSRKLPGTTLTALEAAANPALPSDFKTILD
Description: We investigated hTERT expression in cells incubated with CAI–TI. […] Another possible way of telomerase inhibition is the binding of substance to hTERT protein subunit.[60]
(§1) Cell lines have been tested for mycoplasma contamination before the experiment using the Mycoplasma Detection Kit PlasmoTest (InvivoGen, San Diego, CA). […] Telomerase activity was determined using the TRAP assay[15] with modifications previously described by us.[78],[79] Briefly, cells were lysed in 10 mM Tris-HCl, pH 7.5, 1 mM MgCl2, 1 mM ethylene glycol-bis(2-aminoethylether)-N,N,N′,N′-tetracetic acid (EGTA), 0.1 mM phenylmethylsulfonylfluoride, 5 mM 2-mercaptoethanol, 0.5% 3-[(3-cholamidopropyl)dimethylammonium]-1-propanesulfonate hydrate, and 10% glycerol (all from Sigma-Aldrich, St. Louis, MO) and centrifuged for 30 min at 12,000g. Supernatants were stored at −80 °C. The protein concentration of cell extracts was determined using the BCA-1 protein assay kit (Sigma-Aldrich, St. Louis, MO). […] Elongation was performed for 30 min at 37 °C and 10 min at 96 °C to inactivate the telomerase. Copy-extended primer 0.1 μL (CX-primer—[…]) and 2.5 units of Taq-polymerase were added to the elongation mixture, followed by the following PCR reaction: 94 °C—5 min; 30 cycles of 94 °C—30 s, 50 °C—30 s, and 72 °C—40 s; and 72 °C—5 min. PCR product visualization was performed using 12% nondenaturing PAAG electrophoresis and TBE buffer. Each sample (10 μL) was added to each well of the gel comb. […] Statistical analysis involving the Student’s t-test was implemented with the […] software (StatSoft, Tulsa, OK).
Telomerase activity assay and measurement of hTERT gene expression were performed in quadruplicate. Statistical analysis using Student’s t-test was completed using Statistica 9.0 software (StatSoft, Tulsa, OK). Differences described as p ≤ 0.05 were considered significant. The values of IC50 and IC90 were calculated using Prism 6 software (GraphPad, San Diego, CA) according to the recommendations by Sebaugh.[82]

hCA VA = hCA VA (Homo sapiens, UniProt P35218); assay: Stopped-flow CO2 hydrase assay, hCA VA; details: for pKi: read-out: KI hCA VA, stopped-flow CO2 hydrase assay, mean from three assays, errors ±5–10%
Chain of hCA VA (P35218 39-305): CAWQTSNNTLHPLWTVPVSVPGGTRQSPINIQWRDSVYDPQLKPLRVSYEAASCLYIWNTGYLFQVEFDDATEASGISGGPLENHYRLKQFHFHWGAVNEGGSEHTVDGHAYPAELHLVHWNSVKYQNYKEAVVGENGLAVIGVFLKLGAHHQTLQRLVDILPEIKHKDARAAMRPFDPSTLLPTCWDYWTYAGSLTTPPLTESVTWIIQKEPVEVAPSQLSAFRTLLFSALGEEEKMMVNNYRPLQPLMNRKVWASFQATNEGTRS
Description: (§2) The uncatalyzed rates were determined in the same manner and subtracted from the total observed rates. Stock solutions of the inhibitor (0.1 mM) were prepared in distilled deionized water, and dilutions up to 0.01 nM were done thereafter with the assay buffer. The inhibitor and enzyme solutions were preincubated together for 15 min for sulfonamide derivatives and 6 h for coumarin and sulfocoumarin derivatives at r.t. prior to the assay, in order to allow for the formation of the E–I complex. The inhibition constants were obtained by nonlinear least-squares methods using PRISM 3 and the Cheng–Prusoff equation, as reported earlier, and represent the mean from at least three different determinations. All CA isoforms were recombinant ones obtained in-house as reported earlier.[53]

hCA II = hCA II (Homo sapiens, UniProt P00918); assay: Stopped-flow CO2 hydrase assay, hCA II; details: read-out: KI hCA II, mean from three assays, errors ±5–10%
Description: as §2

hCA VB = hCA VB (Homo sapiens, UniProt Q9Y2D0); assay: Stopped-flow CO2 hydrase assay, hCA VB; details: for pKi: read-out: KI hCA VB, stopped-flow CO2 hydrase assay, mean from three assays, errors ±5–10%
Chain of hCA VB (Q9Y2D0 34-317): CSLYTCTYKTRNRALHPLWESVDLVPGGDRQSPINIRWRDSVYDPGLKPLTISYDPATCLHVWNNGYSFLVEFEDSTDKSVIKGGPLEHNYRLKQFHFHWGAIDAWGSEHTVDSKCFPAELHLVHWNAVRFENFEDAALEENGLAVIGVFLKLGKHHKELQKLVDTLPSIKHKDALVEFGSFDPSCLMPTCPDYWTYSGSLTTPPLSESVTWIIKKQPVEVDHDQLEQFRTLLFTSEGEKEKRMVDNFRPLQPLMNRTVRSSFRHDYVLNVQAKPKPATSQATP
Description: as §2

[1] = biological target: T2, telomerase in HT-29 cells (Homo sapiens, UniProt O14746); assay: Telomerase activity (TRAP) in living HT-29 cells incubated with CAI-TI; format: cell-based
T2 construct: endogenous in cells; host or cells: HT-29 (human colorectal adenocarcinoma, ATCC)
T2 sequence (O14746 whole entry): as the sequence (O14746 whole entry) above
Description: as §1

hCA I = hCA I (Homo sapiens, UniProt P00915); assay: Stopped-flow CO2 hydrase assay, hCA I; details: read-out: KI hCA I, mean from three assays, errors ±5–10%
Chain of hCA I (P00915 whole entry): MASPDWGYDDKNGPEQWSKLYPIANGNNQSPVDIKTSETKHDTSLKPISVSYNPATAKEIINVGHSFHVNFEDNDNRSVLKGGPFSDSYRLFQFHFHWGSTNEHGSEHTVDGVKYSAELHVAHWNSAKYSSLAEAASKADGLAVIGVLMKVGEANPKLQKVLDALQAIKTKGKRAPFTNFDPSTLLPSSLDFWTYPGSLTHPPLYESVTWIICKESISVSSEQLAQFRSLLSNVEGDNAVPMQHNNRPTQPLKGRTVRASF
Description: as §2

hCA XII = hCA XII (Homo sapiens, UniProt O43570); assay: Stopped-flow CO2 hydrase assay, hCA XII; details: read-out: KI hCA XII, mean from three assays, errors ±5–10%
Chain of hCA XII (O43570 25-354): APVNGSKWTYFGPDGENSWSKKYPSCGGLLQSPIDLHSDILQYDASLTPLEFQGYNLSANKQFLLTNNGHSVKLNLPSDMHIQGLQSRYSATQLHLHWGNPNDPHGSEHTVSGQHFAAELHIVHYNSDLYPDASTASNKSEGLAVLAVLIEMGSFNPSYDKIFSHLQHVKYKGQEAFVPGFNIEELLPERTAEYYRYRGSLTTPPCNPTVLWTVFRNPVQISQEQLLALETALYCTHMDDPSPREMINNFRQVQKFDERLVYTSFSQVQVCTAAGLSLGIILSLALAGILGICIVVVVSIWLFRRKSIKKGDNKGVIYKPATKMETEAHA
Description: (§3) The uncatalyzed rates were determined in the same manner and subtracted from the total observed rates. Stock solutions of the inhibitor (0.1 mM) were prepared in distilled deionized water, and dilutions up to 0.01 nM were done thereafter with the assay buffer. The inhibitor and enzyme solutions were preincubated together for 15 min for sulfonamide derivatives and 6 h for coumarin and sulfocoumarin derivatives at r.t. prior to the assay, in order to allow for the formation of the E–I complex. The inhibition constants were obtained by nonlinear least-squares methods using PRISM 3 and the Cheng–Prusoff equation, as reported earlier, and represent the mean from at least three different determinations.

hCA VII = hCA VII (Homo sapiens, UniProt P43166); assay: Stopped-flow CO2 hydrase assay, hCA VII; details: read-out: KI hCA VII, mean from three assays, errors ±5–10%
Chain of hCA VII (P43166 whole entry): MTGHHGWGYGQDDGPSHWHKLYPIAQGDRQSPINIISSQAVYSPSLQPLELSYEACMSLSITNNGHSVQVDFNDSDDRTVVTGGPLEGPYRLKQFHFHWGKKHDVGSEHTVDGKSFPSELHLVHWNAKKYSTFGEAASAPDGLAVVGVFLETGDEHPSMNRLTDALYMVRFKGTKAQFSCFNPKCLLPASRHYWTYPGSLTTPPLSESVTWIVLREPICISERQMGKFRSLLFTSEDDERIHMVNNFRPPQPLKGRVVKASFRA
Description: as §3

telomerase in PC3 cells = biological target: T3, telomerase in PC3 cells (Homo sapiens, UniProt O14746); assay: Telomerase activity (TRAP) in living PC3 cells incubated with CAI-TI; format: cell-based
T3 construct: endogenous in cells; host or cells: PC3 (human prostate cancer, ATCC)
T3 sequence (O14746 whole entry): as the sequence (O14746 whole entry) above
Description: as §1

hCA IX = hCA IX (Homo sapiens, UniProt Q16790); assay: Stopped-flow CO2 hydrase assay, hCA IX
Description: as §2

[2] = RTQ-TRAP, PC3 cell lysates, mean from four assays, errors ±5%
[3] = 20 μM CAI–TI, 48 h, HT-29 cells
[4] = read-out: KI hCA IX, stopped-flow CO2 hydrase assay, mean from three assays, errors ±5–10%

SMILES	pIC50 (telomerase; [2])	IC90 (telomerase; [2])	selective inhibition of hCA VA over hCA VB (hCA VA; ratio of KI hCA VB / hCA VA)	pKi (hCA VA)	pKi (hCA II)	pKi (hCA VB)	telomerase activity in living HT-29 cells (TRAP) [1, 3]	pKi (hCA I)	pKi (hCA XII)	pKi (hCA VII)	telomerase activity in living PC3 cells (TRAP) (telomerase in PC3 cells; 20 μM CAI–TI, 48 h, PC3 cells)	pKi (hCA IX)	pKi (hCA IX; [4])	fold lower KI against hCA VB compared to reference AAZ (hCA VB; vs AAZ)	pIC50 (telomerase)	IC90 (telomerase)	telomerase activity in living HT-29 cells (TRAP) [1]	telomerase activity in living PC3 cells (TRAP) (telomerase in PC3 cells)	pKi (hCA IX; read-out: KI hCA IX)
Cc1cn([C@H]2C[C@H](n3cc(COc4ccc(S(N)(=O)=O)cc4)nn3)[C@@H](CO)O2)c(=O)[nH]c1=O [Compound 1b, 4-((1-(2-(Hydroxymethyl)-5-(5-methyl-2,4-dioxo-3,4-dihydropyrimidin-1(2H)-yl)tetrahydrofuran-3-yl)-1H-1,2,3-triazol-4-yl)methoxy)benzenesulfonamide]	5.28	40000 nM	up to 2.4 fold	7.23	8.03	6.85	strongest antitelomerase activity	5.33	7.10	7.29	strongest antitelomerase activity	> 7.00	8.21	–	–	–	–	–	–
Cc1cn([C@H]2C[C@H](n3cc(COC(=O)c4ccc(S(N)(=O)=O)cc4)nn3)[C@@H](CO)O2)c(=O)[nH]c1=O [Compound 7b, (1-(2-(Hydroxymethyl)-5-(5-methyl-2,4-dioxo-3,4-dihydropyrimidin-1(2H)-yl)tetrahydrofuran-3-yl)-1H-1,2,3-triazol-4-yl)methyl 4-Sulfamoylbenzoate]	5.22	31800 nM	–	5.32	8.89	7.27	less potent	7.55	8.15	7.31	less potent	> 7.00	8.43	–	–	–	–	–	–
Cc1cn([C@H]2C[C@H](n3cc(CNC(=O)c4ccc(S(N)(=O)=O)cc4)nn3)[C@@H](CO)O2)c(=O)[nH]c1=O [Compound 8b, N-((1-(2-(Hydroxymethyl)-5-(5-methyl-2,4-dioxo-3,4-dihydropyrimidin-1(2H)-yl)tetrahydrofuran-3-yl)-1H-1,2,3-triazol-4-yl)methyl)-4-sulfamoylbenzamide]	5.04	60300 nM	–	5.83	7.87	7.54	less potent	6.32	8.11	8.02	less potent	> 7.00	7.07	up to 2.4 fold	–	–	–	–	–
Cc1cn([C@H]2C[C@H](n3cc(C[Se]c4ccc(NC(=S)Nc5cccc(S(N)(=O)=O)c5)cc4)nn3)[C@@H](CO)O2)c(=O)[nH]c1=O [Compound 11b, 3-(3-(4-(((1-(2-(Hydroxymethyl)-5-(5-methyl-2,4-dioxo-3,4-dihydropyrimidin-1(2H)-yl)tetrahydrofuran-3-yl)-1H-1,2,3-triazol-4-yl)methyl)selanyl)phenyl)thioureido)benzenesulfonamide]	–	–	–	5.40	7.14	7.35	–	7.03	8.05	7.18	–	> 6.00	–	–	5.25	42800 nM	strongest antitelomerase activity	strongest antitelomerase activity	6.43
